In patent US20250136570A1 (Tango Therapeutics, Inc., priority 2021, published 2025) one finds IC50 data, which are given here for 33 compounds.

pIC50: −log10 of the molar value. Where only a bound is given, the exact number is not on record here.

One assay has as its target HDAC3/NCor2 (Homo sapiens (Human), UniProt O15379). The assay can be described thus: HDAC3 inhibition, Fluor de Lys fluorescent enzyme assay. The conditions noted are these: 3 hours pre-incubation at room temp; 1.2 nM enzyme; 16 μM Fluor de Lys substrate; duplicate. The class given is biochemical. Put shortly:
(§1)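 Enzyme (HDAC1 6 nM, HDAC3/NCor2 1.2 nM final) pre-incubated with compound 3 h at ~22 °C in Tris pH 8 buffer with 0.01% BSA. Reaction run 1 h with 16 μM Fluor de Lys substrate and stopped with TSA-containing developer. Fluorescence read at Ex 360/Em 460; IC50 from an occupancy equation with Hill coefficient, in duplicate.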

A further assay concerns the target Recombinant HDAC1 (Homo sapiens (Human), UniProt Q13547). Put plainly: HDAC1 inhibition, Fluor de Lys fluorescent enzyme assay. The class given is biochemical. Particulars: 3 hours pre-incubation at room temp; 6 nM enzyme; 16 μM Fluor de Lys substrate; duplicate. Put shortly:
as §1

HDAC3/NCor2, sequence (O15379 whole entry): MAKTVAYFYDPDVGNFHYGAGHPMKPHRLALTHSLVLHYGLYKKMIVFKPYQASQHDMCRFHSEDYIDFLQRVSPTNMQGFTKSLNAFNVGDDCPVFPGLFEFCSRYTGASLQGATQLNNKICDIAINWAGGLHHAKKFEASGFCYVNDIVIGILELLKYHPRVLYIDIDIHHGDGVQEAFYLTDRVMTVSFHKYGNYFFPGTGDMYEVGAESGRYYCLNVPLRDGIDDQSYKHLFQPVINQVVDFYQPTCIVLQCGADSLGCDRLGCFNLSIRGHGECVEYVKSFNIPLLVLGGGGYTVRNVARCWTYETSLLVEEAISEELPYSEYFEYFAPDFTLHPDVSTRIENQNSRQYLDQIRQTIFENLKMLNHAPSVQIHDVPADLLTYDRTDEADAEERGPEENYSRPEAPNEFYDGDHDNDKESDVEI
HDAC3/NCor2, sequence (Q9Y618 395-489 partner): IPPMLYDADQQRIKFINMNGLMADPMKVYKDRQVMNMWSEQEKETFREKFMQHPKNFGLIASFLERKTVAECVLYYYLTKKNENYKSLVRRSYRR
Recombinant HDAC1, sequence (Q13547 whole entry): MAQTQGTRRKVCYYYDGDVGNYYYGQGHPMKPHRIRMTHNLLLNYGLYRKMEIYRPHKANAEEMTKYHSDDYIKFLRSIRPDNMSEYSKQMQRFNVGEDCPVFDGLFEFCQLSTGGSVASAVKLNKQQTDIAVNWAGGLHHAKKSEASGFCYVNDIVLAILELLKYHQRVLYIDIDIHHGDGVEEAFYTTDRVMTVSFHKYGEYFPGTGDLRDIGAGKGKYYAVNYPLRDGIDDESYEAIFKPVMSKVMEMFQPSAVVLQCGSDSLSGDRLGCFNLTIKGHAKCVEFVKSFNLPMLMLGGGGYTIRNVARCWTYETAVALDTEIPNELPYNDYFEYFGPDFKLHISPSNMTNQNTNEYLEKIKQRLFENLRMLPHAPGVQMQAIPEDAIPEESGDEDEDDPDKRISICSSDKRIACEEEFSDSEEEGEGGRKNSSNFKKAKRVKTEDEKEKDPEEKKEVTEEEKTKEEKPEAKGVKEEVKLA

Turning to `CS(=N)(=O)c1ccc(C(=O)Nc2cc(-c3ccccn3)ccc2N)cc1` (stereo not drawn) [Compound 119, N-[2-amino-5-(2-pyridyl)phenyl]-4-(methylsulfonimidoyl)benzamide], the pIC50 at HDAC3/NCor2 is < 5.70; at Recombinant HDAC1 it was 6.30 to 7.00.

Turning to `CS(=N)(=O)c1ccc(C(=O)Nc2cc(-c3ccc(F)c(F)c3)ccc2N)cc1` (stereo not drawn) [Compound 147, N-[2-amino-5-(3,4-difluorophenyl)phenyl]-4-(methylsulfonimidoyl)benzamide], the pIC50 was < 5.70 against HDAC3/NCor2 and 6.30 to 7.00 at Recombinant HDAC1.

As to `N=S(=O)(c1ccc(C(=O)Nc2cc(-c3cccs3)ccc2N)cn1)C1CC1` (stereo not drawn) [Compound 122, N-[2-amino-5-(2-thienyl)phenyl]-6-(cyclopropylsulfonimidoyl)pyridine-3-carboxamide], the pIC50 against HDAC3/NCor2 was 5.70 to 6.30; on Recombinant HDAC1, > 7.00.

`CS(=O)(=NC1CC1)c1ccc(C(=O)Nc2cc(-c3ccc(F)cc3)ccc2N)cc1` (stereo not drawn) [Compound 163, N-[2-amino-5-(4-fluorophenyl)phenyl]-4-(N-cyclopropyl-S-methyl-sulfonimidoyl)benzamide]: the results for the pIC50 on HDAC3/NCor2 and on Recombinant HDAC1 were 6.30 to 7.00 and > 7.00, respectively.

In the case of `CS(=N)(=O)C1(c2ccc(C(=O)Nc3cc(-c4ccc(F)cc4)ccc3N)cc2)CC1` (stereo not drawn) [Compound 251, N-[2-amino-5-(4-fluorophenyl)phenyl]-4-[1-(methylsulfonimidoyl)cyclopropyl]benzamide], the values for the pIC50 at HDAC3/NCor2 and at Recombinant HDAC1 were 5.70 to 6.30 and > 7.00, respectively.

In the case of `N=S(=O)(c1ccc(C(=O)Nc2cc(-c3ccc(F)cc3)ccc2N)cc1)c1ccccn1` (stereo not drawn) [Compound 166, N-[2-amino-5-(4-fluorophenyl)phenyl]-4-(2-pyridylsulfonimidoyl)benzamide], the pIC50 is 5.70 to 6.30 on HDAC3/NCor2 and > 7.00 at Recombinant HDAC1.

As for `CC1CCS(=O)(c2ccc(C(=O)Nc3cc(-c4ccc(F)cc4)ccc3N)cc2)=N1` (stereo not drawn) [Compound 244], the pIC50 was < 5.70 against HDAC3/NCor2 and > 7.00 at Recombinant HDAC1.

Turning to `Nc1ccc(-c2ccc(F)cc2)cc1NC(=O)c1cc2cc(S3(=O)=NCCC3)ccc2o1` (stereo not drawn) [Compound 210], the values for the pIC50 on HDAC3/NCor2 and on Recombinant HDAC1 were 5.70 to 6.30 and > 7.00, respectively.

In the case of `Cc1ncccc1S(=N)(=O)c1ccc(C(=O)Nc2cc(-c3ccc(F)cc3)ccc2N)cc1` (stereo not drawn) [Compound 190, N-[2-amino-5-(4-fluorophenyl)phenyl]-4-[(2-methyl-3-pyridyl)sulfonimidoyl]benzamide], the pIC50 at HDAC3/NCor2 was 5.70 to 6.30; on Recombinant HDAC1 it was > 7.00.

`N=S(=O)(c1ccc(C(=O)Nc2cc(-c3ccc(F)cc3)ccc2N)cc1)c1cnccn1` (stereo not drawn) [Compound 195, N-[2-amino-5-(4-fluorophenyl)phenyl]-4-(pyrazin-2-ylsulfonimidoyl)benzamide]: the pIC50 against HDAC3/NCor2 is 5.70 to 6.30; at Recombinant HDAC1 it was > 7.00.

On to `N=S(=O)(c1ccc(C(=O)Nc2cc(-c3ccc(F)cc3)ccc2N)cc1)c1cccc(F)c1` (stereo not drawn) [Compound 216, N-[2-amino-5-(4-fluorophenyl)phenyl]-4-[(3-fluorophenyl)sulfonimidoyl]benzamide], for which the pIC50 against HDAC3/NCor2 is 5.70 to 6.30; on Recombinant HDAC1 it was > 7.00.

On to `N=[S@@](=O)(c1ccc(C(=O)Nc2cc(-c3ccc(F)cc3)ccc2N)cc1)C1CC1` (single isomer, unassigned) [Compound 146], for which the pIC50 on HDAC3/NCor2 was 5.70 to 6.30; on Recombinant HDAC1, > 7.00.

Take `Cc1ncc(S(=N)(=O)c2ccc(C(=O)Nc3cc(-c4ccc(F)cc4)ccc3N)cc2)cn1` (stereo not drawn) [Compound 235, N-[2-amino-5-(4-fluorophenyl)phenyl]-4-[(2-methylpyrimidin-5-yl)sulfonimidoyl]benzamide]: the pIC50 at HDAC3/NCor2 is 5.70 to 6.30; at Recombinant HDAC1 it was > 7.00.

On to `N=[S@](=O)(c1ccc(C(=O)Nc2cc(-c3ccc(F)cc3)ccc2N)cc1)c1cncnc1` (single isomer, unassigned) [Compound 183], for which the pIC50 was 5.70 to 6.30 against HDAC3/NCor2 and > 7.00 on Recombinant HDAC1.

`CS(=N)(=O)Cc1ccc(C(=O)Nc2cc(-c3ccc(F)cc3)ccc2N)cc1` (stereo not drawn) [Compound 162, N-[2-amino-5-(4-fluorophenyl)phenyl]-4-[(methylsulfonimidoyl)methyl]benzamide]: the figures for the pIC50 against HDAC3/NCor2 and at Recombinant HDAC1 were 5.70 to 6.30 and > 7.00, respectively.

For `N=S(=O)(c1ccc(C(=O)Nc2cc(-c3ccc(F)cc3)ccc2N)cc1)C(F)(F)F` (stereo not drawn) [Compound 177, N-[2-amino-5-(4-fluorophenyl)phenyl]-4-(trifluoromethylsulfonimidoyl)benzamide], the pIC50 is 5.70 to 6.30 against HDAC3/NCor2 and > 7.00 on Recombinant HDAC1.

Turning to `CCS(=N)(=O)c1ccc(C(=O)Nc2cc(-c3ccc(F)cc3)ccc2N)cc1` (stereo not drawn) [Compound 194, N-[2-amino-5-(4-fluorophenyl)phenyl]-4-(ethylsulfonimidoyl)benzamide], the pIC50 is 5.70 to 6.30 at HDAC3/NCor2 and > 7.00 on Recombinant HDAC1.

For `N=S(=O)(c1ccc(C(=O)Nc2cc(-c3ccc(F)cc3F)ccc2N)cc1)C1CC1` (stereo not drawn) [Compound 118, N-[2-amino-5-(2,4-difluorophenyl)phenyl]-4-(cyclopropylsulfonimidoyl)benzamide], the pIC50 on HDAC3/NCor2 is 5.70 to 6.30; on Recombinant HDAC1, > 7.00.

For the compound `CS(=N)(=O)c1ncc(C(=O)Nc2cc(-c3ccc(F)cc3)ccc2N)s1` (stereo not drawn) [Compound 164, N-[2-amino-5-(4-fluorophenyl)phenyl]-2-(methylsulfonimidoyl)thiazole-5-carboxamide], the pIC50 on HDAC3/NCor2 is 5.70 to 6.30; on Recombinant HDAC1 it was 6.30 to 7.00.

Take `COCCOCc1cncc(S(=N)(=O)c2ccc(C(=O)Nc3cc(-c4ccc(F)cc4)ccc3N)cc2)c1` (stereo not drawn) [Compound 193, N-[2-amino-5-(4-fluorophenyl)phenyl]-4-[[5-(2-methoxyethoxymethyl)-3-pyridyl]sulfonimidoyl]benzamide]: the pIC50 against HDAC3/NCor2 was < 5.70; at Recombinant HDAC1, > 7.00.

`N=[S@@](=O)(c1ccc(C(=O)Nc2cc(-c3ccc(F)s3)ccc2N)cc1)C1CC1` (single isomer, unassigned) [Compound 133]: the pIC50 against HDAC3/NCor2 is 5.70 to 6.30; on Recombinant HDAC1 it was > 7.00.

Consider `CS(=N)(=O)c1ccc(C(=O)Nc2cc(-c3ccc(F)cc3)ccc2N)cn1` (stereo not drawn) [Compound 129, N-[2-amino-5-(4-fluorophenyl)phenyl]-6-(methylsulfonimidoyl)pyridine-3-carboxamide], for which the pIC50 against HDAC3/NCor2 is 5.70 to 6.30; at Recombinant HDAC1 it was > 7.00.

Consider `CS(=N)(=O)c1ccc(C(=O)Nc2cc(-c3ccc(F)cc3)ccc2O)cc1` (stereo not drawn) [Compound 130, N-[5-(4-fluorophenyl)-2-hydroxy-phenyl]-4-(methylsulfonimidoyl)benzamide], for which the pIC50 was 5.70 to 6.30 at HDAC3/NCor2 and > 7.00 at Recombinant HDAC1.

Consider `CS(=N)(=O)c1ccc(C(=O)Nc2cc(-c3ccsc3)ccc2N)cc1` (stereo not drawn) [Compound 249, N-[2-amino-5-(3-thienyl)phenyl]-4-(methylsulfonimidoyl)benzamide], for which the results for the pIC50 against HDAC3/NCor2 and at Recombinant HDAC1 were 5.70 to 6.30 and > 7.00, respectively.

In the case of `CS(=N)(=O)c1ccc(C(=O)Nc2cc(-c3cccnn3)ccc2N)cc1` (stereo not drawn) [Compound 157, N-(2-amino-5-pyridazin-3-yl-phenyl)-4-(methylsulfonimidoyl)benzamide], the pIC50 at HDAC3/NCor2 was < 5.70; on Recombinant HDAC1, > 7.00.

With `N=S(=O)(c1ccc(C(=O)Nc2cc(-c3ccc(F)cc3)ccc2N)cc1)c1cnccc1C1CC1` (stereo not drawn) [Compound 191, N-[2-amino-5-(4-fluorophenyl)phenyl]-4-[(4-cyclopropyl-3-pyridyl)sulfonimidoyl]benzamide], the pIC50 against HDAC3/NCor2 was 5.70 to 6.30; at Recombinant HDAC1 it was > 7.00.

`N#Cc1cncc(S(=N)(=O)c2ccc(C(=O)Nc3cc(-c4ccc(F)cc4)ccc3N)cc2)c1` (stereo not drawn) [Compound 232, N-(4-amino-4′-fluoro-[1,1′-biphenyl]-3-yl)-4-(5-cyanopyridine-3-sulfonimidoyl)benzamide]: the pIC50 against HDAC3/NCor2 was < 5.70; at Recombinant HDAC1, > 7.00.

As for `CC(C)c1cncc(S(=N)(=O)c2ccc(C(=O)Nc3cc(-c4ccc(F)cc4)ccc3N)cc2)c1` (stereo not drawn) [Compound 226, N-[2-amino-5-(4-fluorophenyl)phenyl]-4-[(5-isopropyl-3-pyridyl)sulfonimidoyl]benzamide], the pIC50 is 5.70 to 6.30 against HDAC3/NCor2 and > 7.00 on Recombinant HDAC1.

As to `N=[S@@](=O)(c1ccc(C(=O)Nc2cc(-c3ccc(F)cc3)ccc2N)cc1)c1ccccn1` (single isomer, unassigned) [Compound 212], the pIC50 against HDAC3/NCor2 was 5.70 to 6.30; on Recombinant HDAC1, > 7.00.

As to `CS(=N)(=O)c1ccc(C(=O)Nc2cc(-c3ccc(C(F)(F)F)cc3)ccc2N)cc1` (stereo not drawn) [Compound 142, N-[2-amino-5-[4-(trifluoromethyl)phenyl]phenyl]-4-(methylsulfonimidoyl)benzamide], the pIC50 is < 5.70 against HDAC3/NCor2 and 5.70 to 6.30 at Recombinant HDAC1.

In the case of `CS(=N)(=O)c1ccc2sc(C(=O)Nc3cc(-c4ccc(F)cc4)ccc3N)cc2n1` (stereo not drawn) [Compound 254, N-[2-amino-5-(4-fluorophenyl)phenyl]-5-(methylsulfonimidoyl)thieno[3,2-b]pyridine-2-carboxamide], the pIC50 on HDAC3/NCor2 was 6.30 to 7.00; at Recombinant HDAC1, > 7.00.

Take `Nc1ccc(-c2ccc(F)cc2)cc1NC(=O)c1ccc([S@@]2(=O)=NCCC2)cc1` (stereo in doubt) [Compound 185, N-[2-amino-5-(4-fluorophenyl)phenyl]-4-[rel-(1R)-1-oxo-4,5-dihydro-3H-isothiazol-1-yl]benzamide]: the pIC50 on HDAC3/NCor2 was 5.70 to 6.30; on Recombinant HDAC1, > 7.00.

For the compound `N=S(=O)(c1ccc(C(=O)Nc2cc(-c3ccc(F)cc3)ccc2N)cc1)C1CC1` (racemic) [Compound 111, rac-N-[2-amino-5-(4-fluorophenyl)phenyl]-4-(cyclopropylsulfonimidoyl)benzamide], the results for the pIC50 against HDAC3/NCor2 and on Recombinant HDAC1 were 5.70 to 6.30 and > 7.00, respectively.

The pIC50 is −log10 of the IC50, conventionally taken in molar units.
